Laboratory results published in patent publication US20060172992A1, “Therapeutic agent for overactive bladder resulting from cerebral infarction” (EISAI CO., LTD., priority 2004, published 2006).
“Also recorded” adds a separate entry of the source.

Key:
[1] = test system: human with overactive bladder caused by cerebrovascular disease; conditions: cited from earlier work
[2] = test system: rat with overactive bladder caused by cerebrovascular disease; conditions: cited from earlier work
cerebral infarction rats = experiment: Bladder pressure measurement after intraventricular administration, cerebral infarction rats; type: in vivo, rat
Experimental: After producing cerebral infarction rats, drug infusion tubes were placed in the lateral ventricles of the rats.
The process was conducted in the same manner as Example 5 except that metal tubes were inserted into lateral ventricles upon producing cerebral infarction rats. […] Feasibility of intraventricular administration was determined after injecting ink into the brain, sacrificing the rats and removing the brains to verify on their faces. […] As vehicle, saline was infused for […]. Experiments of five examples for each concentration were conducted.

[3] = test system: overactive bladder model rats (cerebral infarction by left middle cerebral artery embolization); experiment: Bladder pressure measurement after intravenous administration, cerebral infarction rats (CI group)
[4] = 5×10^−4 mg/kg and 5×10^−5 mg/kg

Structure (SMILES)	micturition reflex [1]	micturition reflex [2]	bladder capacity, dose comparison (cerebral infarction rats; cerebral infarction group, 5×10^−5 mg/ml)	increase in bladder capacity (cerebral infarction rats; cerebral infarction rats, 5×10^−5 mg/ml) [%]	bladder capacity, difference from vehicle administration group (cerebral infarction rats; cerebral infarction rats, 5 μl of 5×10^−5 mg/ml and 5×10^−6 mg/ml, hydrochloride)	bladder capacity (cerebral infarction rats; cerebral infarction rats, 5 μl of 5×10^−7 to 5×10^−4 mg/ml, hydrochloride)	micturition contraction pressure (cerebral infarction rats; respective doses, versus vehicle, hydrochloride)	micturition contraction pressure [3, 4]	retained urine [3, 4]	micturition contraction pressure ([3]; CI group, 5×10^−1 mg/kg)	bladder capacity, difference from vehicle administration group ([3]; CI group, 5×10^−4 mg/kg and 5×10^−5 mg/kg, hydrochloride)	increase in bladder capacity (percentage of change from control) ([3]; CI group, 5×10^−5 mg/kg) [%]	percentage of change in bladder capacity ([3]; CI group, 5×10^−4 to 5×10^−5 mg/kg (bladder capacity most increased)) [%]	bladder capacity ([3]; CI group, 5×10^−7 to 5×10^−1 mg/kg every 30 minutes, hydrochloride, 1 mg/kg)	micturition contraction pressure, versus vehicle administration group ([3]; CI group, 5×10^−7 to 5×10^−2 mg/kg)
COc1ccc(C(=O)N2CCCC2=O)cc1 [Aniracetam]	suppression of micturition reflex is observed	suppression of micturition reflex is observed													
COc1cc2c(cc1OC)C(=O)C(CC1CCN(Cc3ccccc3)CC1)C2.Cl (stereo not drawn) [donepezil hydrochloride, 1-benzyl-4-[(5,6-dimethoxy-1-indanone)-2-yl]methylpiperidine hydrochloride]			most increased	95.8	increased with a significant margin	notably increased	No change; also recorded: no significant difference	no change	little retained urine	significantly increased	significant difference from the vehicle administration group	52.8	52.8	increased the bladder capacities; also recorded: gradually increased	no significant difference
